Experimental data from PMC12638379, “An innovative approach to development of new pyrazolylquinolin-2-one hybrids as dual EGFR and BRAF^V600E inhibitors” (Molecular Diversity, 2025).
Values joined by “and” are separate entries in the source; they are usually repeats but may differ in a detail not shown here. Equal entries are not always repeated.

How the values were obtained:
[1] = tested on: breast cancer (T47D) cell line; test: MTT antiproliferative assay, T-47D
Method: The median inhibitory concentration (IC50) and GI50 (average IC50) against the three cancer cell lines were calculated. See Appendix B.
Cells were cultured using DMEM (Invitrogen/Life Technologies) supplemented with 10% FBS (Hyclone,), 10 ug/ml of insulin (Sigma), and 1% penicillin-streptomycin. Plate cells (cells density 1.2 – 1.8 × 10,000 cells/well) in a volume of 100µl complete growth medium + 100 ul of the tested compound per well in a 96-well plate for 24 hours before the MTT assay. In atypical experiment, one hundred micro liters of serial 10-fold diluted sterile tested compounds were added to final concentrations of […] using culture media as negative control. After 24 h of culture incubation and supernatants discarded. HOP-92 lung, MOLT-4 leukemia, and T-47D breast cell lines were trypsinized and washed with Ca2/Mg2 free PBS (pH 7.2). we removed cultures from incubator into laminar flow hood or other sterile work area. […] Each test should include a blank containing complete medium without cells. […] Add reconstituted MTT in an amount equal to 10% of the culture medium volume. Return cultures to incubator for 2-4 hours depending on cell type and maximum cell density. […] Spectrophotometrically absorbance was measured at a wavelength of 570 nm. Measure the background absorbance of multiwell plates at 690 nm and subtract from the […] measurement. Results from all experiments were recorded and the percentage of viable cells was calculated.

[2] = tested on: leukemia (MOLT-4) cell line; test: MTT antiproliferative assay, MOLT-4; type: cell-based, human
Method: After 24 h of culture incubation and supernatants discarded.

normal cell line WI-38 = test: MTT cytotoxicity on normal cell line WI-38; details: listed as STA

SMILES: CN[C@@H]1C[C@H]2O[C@@](C)([C@@H]1OC)n1c3ccccc3c3c4c(c5c6ccccc6n2c5c31)C(=O)NC4 [Staurosporine, reference compound]
- viability at 0.4 µM ([1]; Homo sapiens, T47D): 69%
- viability at 6.3 µM ([1]; Homo sapiens, T47D, 6.3uM (log 0.796)): 45.9%
- viability at 25 µM ([1]; Homo sapiens, T47D, 25uM (log 1.398)): 35%
- viability at 100 µM ([1]; Homo sapiens, T47D, 100uM (log 2), MTT absorbance 450 nm): 29.6%
- % viability ([1]; T47D, 1.6ug (log 0.193), listed as STA): 61.548% and 61.55%
- % viability ([1]; human, 0.4 µM): 69.04%
- % viability ([2]; MOLT-4, 0.4ug (log conc. -0.41), listed as STA): 72.582% and 72.58%
- % viability ([2]; MOLT-4, 1.6ug (log conc. 0.193), listed as STA): 62.059% and 62.06%
- % viability ([2]; MOLT-4, 6.3ug (log conc. 0.796)): 51.82%
- % viability ([2]; MOLT-4, 25ug (log conc. 1.398)): 36.23%
- % viability ([2]; MOLT-4, 100ug (log conc. 2)): 24.46%
- % viability (normal cell line WI-38; WI38, 1.6uM (log conc. 0.19), 1.6 µM): 68.1%
- % viability (normal cell line WI-38; WI38, 100uM (log conc. 2), 100 µM): 37.43%
